# Tested on: P. aphanidermatum cytochrome b gene F129 and L129 alleles
# Test: ARMS/Scorpion F129L SNP detection assay (Ct of allele selective primers on plasmid DNA templates)
# Parameters: species or system Pythium aphanidermatum
# Details: for ΔCt: between C and A plasmid template; for ΔCt / A Ct / C Ct: 2×10^6 molecules/ul; for A Ct: mutant (L129) plasmid template; for NTC amplification: no template (water only) control; for C Ct: wild type (F129) plasmid template; for Observed A:C ratio: plasmid templates 2×10^6 molecules/ul
# Procedure: In all ARMS/Scorpion™ F129L SNP detection assays AmpliTaq Gold enzyme (Applied Biosystems) was included in the reaction mixes at 1 unit/25 μl reaction. The reaction mix also contained 1× buffer (10 mM Tris-HCl (pH8.3), 50 mM KCl, 3.5 mM MgCl2, 0.01% gelatine) and 100 μM dNTPs (Amersham Pharmacia Biotech). Amplifications were performed in an ABI Prism 7700 instrument for continuous fluorescence monitoring. A preliminary cycle of 95° C. for 10 minutes was performed followed by 50 cycles of 95° C. for 15 sec and 60° C. for 45 sec. Fluorescence was monitored during the annealing/extension stage throughout all cycles.
# Primers were first validated for use in such analyses by using plasmid DNA, at various concentrations, as template. This was performed in order to check the specificity and sensitivity of the primer designs. Partial wild type cytochrome b gene sequence and the corresponding tract containing the F129L mutation amplified from two P. aphanidermatum isolates were cloned into the TA pCR2.1 vector (Invitrogen) as described previously in example 2. 150 ul of the bacterial culture, from the 10 transformants from each cloning event picked for Wizard Plus plasmid DNA Preparations (Promega) (see example 2), was saved prior to carrying out these preparations and stored at 4° C. Following sequence analysis wild type and mutant plasmid DNA samples that contained no sequence differences from the consensus sequence were noted. The bacterial culture from which these wild type and mutant plasmid DNA sequences originated was picked for plasmid DNA maxipreps (Qiagen) following the manufacturers protocol. The resulting plasmid DNA was quantified and diluted to a concentration of 1 ug/ul (2×10^11 molecules/ul) using sterile double distilled H2O.
# The wild type and mutant plasmid DNA cassettes were diluted further to a concentration of 10 pg/ul (or 2×10^6 molecules/ul) in double distilled H2O and used as template to validate the specificity of the ARMS primers. Each ARMS primer was tested on wild type and mutant template as well as a no template (water only) control, under the PCR conditions described above. The Pt129-1 and Pt129-4 primers were preferred to the Pt129-2 and Pt129-3 and the Pt129-5 and Pt129-6 primers as duplicate PCRs gave more consistent results and were more specific. Wild type ARMS primer Pt129-1 gave a window of 15.27 cycles before amplification occurred on the inappropriate (mutant) template (FIG. 7). Mutant ARMS primer Pt129-4 gave a window of 16.96 cycles before amplification occurred on the inappropriate (wild type) template (FIG. 8).
# Following the selection of a suitable ARMS primer for the detection of the point mutation the assay was validated further, so that its sensitivity of detection was fully understood before it was used to test biological samples for the presence of the L129 mutation. The first validation step was to establish if the window of specificity varied for the chosen ARMS primers over a 6 orders of magnitude range of wild type and mutant template DNA concentration. The wild type and mutant plasmid DNA cassettes described previously were diluted in Bovine Serum Albumin (BSA) (Fraction V Powder minimum 96%, Sigma A9647) at a concentration of 1 mg/ml through a 10 fold dilution series. The template concentrations covered the range 2×10^8 molecules/ul to 2×10^2 molecules/ul. Both plasmid DNA cassettes and a no template (water only) control were tested in the ARMS/Scorpion assay using primers Pt129-1, Pt129-4 and Pt129-S, as described above.
# In all ARMS/Scorpion™ F129L SNP detection assays AmpliTaq Gold enzyme (Perkin-Elmer/ABI) was included in the reaction mixes at 1 unit/25 μl reaction. The reaction mix also contained 1× buffer (10 mM Tris-HCl (pH8.3), 50 mM KCl, 3.5 mM MgCl2, 0.01% gelatine) and 100 μM dNTPs (Amersham Pharmacia Biotech). Amplifications were performed in an ABI Prism 7700 instrument for continuous fluorescence monitoring. […]
Substance,ΔCt,A Ct,NTC amplification,C Ct,Observed A:C ratio
Pt129-C6 (DNA ACCCCAAGGTAATACATAACCCGTG; chemistry not given here),24.54,44.17,none,19.63,
Pt129-A13 (DNA ACCCCAAGGTAATACATAACTCGTT; chemistry not given here),18.8,41.99,none,23.19,
Pt129-C5 (DNA ACCCCAAGGTAATACATAACCCCTG; chemistry not given here),22.26,42.36,none,20.1,
Pt129-A1 (DNA ACCCCAAGGTAATACATAACCCAAT; chemistry not given here),5.79,26.54,none,32.33,
Pt129-A11 (DNA ACCCCAAGGTAATACATAACACCTT; chemistry not given here),6.4,31.25,none,24.85,
Pt129-A7 (DNA ACCCCAAGGTAATACATAACTCACT; chemistry not given here),14.05,36.33,none,22.28,
Pt129-A8 (DNA ACCCCAAGGTAATACATAACACACT; chemistry not given here),13.76,35.87,none,22.11,
Pt129-C1 (DNA ACCCCAAGGTAATACATAACCCAAG; chemistry not given here),16.81,42.6,none,25.79,
Pt129-A12 (DNA ACCCCAAGGTAATACATAACGCCTT; chemistry not given here),2.7,30.16,none,27.46,
Pt129-C3 (DNA ACCCCAAGGTAATACATAACCCAGG; chemistry not given here),,no A,none,29.7,all C
Pt129-A2 (DNA ACCCCAAGGTAATACATAACCCACT; chemistry not given here),13.14,20.87,none,34.01,
Pt129-C2 (DNA ACCCCAAGGTAATACATAACCCACG; chemistry not given here),23.15,43.57,none,20.42,
Pt129-S6 (DNA TTGACCCCAAGGTAATACATAACTC; chemistry not given here),,20.84,none,20.43,
Pt129-A6 (DNA ACCCCAAGGTAATACATAACCCGTT; chemistry not given here),12.17,21.3,none,33.47,
Pt129-A4 (DNA ACCCCAAGGTAATACATAACCCTTT; chemistry not given here),14.38,24.42,none,38.8,
Pt129-A5 (DNA ACCCCAAGGTAATACATAACCCCTT; chemistry not given here),11.09,21.42,none,32.51,
Pt129-A9 (DNA ACCCCAAGGTAATACATAACGCACT; chemistry not given here),14.96,37.1,none,22.14,
Pt129-A10 (DNA ACCCCAAGGTAATACATAACTCCTT; chemistry not given here),4.2,31.4,none,27.2,
Pt129-A3 (DNA ACCCCAAGGTAATACATAACCCAGT; chemistry not given here),8.91,31.29,none,40.2,
Pt129-A15 (DNA ACCCCAAGGTAATACATAACGCGTT; chemistry not given here),,no C,none,30.05,all A
